We go through two compounds from US8940900B2, “2,2,2-tri-substituted acetamide derivatives as glucokinase activators, their process and pharmaceutical application” (Advinus Therapeutics Private Limited, priority 2007, dated 2015).

As usually defined, the Emax is the greatest response seen or fitted, relative to the assay's reference.

For data set [1], the target named is T1, purified human recombinant GK (Homo sapiens, UniProt P35557).
T1 sequence (P35557 1-465): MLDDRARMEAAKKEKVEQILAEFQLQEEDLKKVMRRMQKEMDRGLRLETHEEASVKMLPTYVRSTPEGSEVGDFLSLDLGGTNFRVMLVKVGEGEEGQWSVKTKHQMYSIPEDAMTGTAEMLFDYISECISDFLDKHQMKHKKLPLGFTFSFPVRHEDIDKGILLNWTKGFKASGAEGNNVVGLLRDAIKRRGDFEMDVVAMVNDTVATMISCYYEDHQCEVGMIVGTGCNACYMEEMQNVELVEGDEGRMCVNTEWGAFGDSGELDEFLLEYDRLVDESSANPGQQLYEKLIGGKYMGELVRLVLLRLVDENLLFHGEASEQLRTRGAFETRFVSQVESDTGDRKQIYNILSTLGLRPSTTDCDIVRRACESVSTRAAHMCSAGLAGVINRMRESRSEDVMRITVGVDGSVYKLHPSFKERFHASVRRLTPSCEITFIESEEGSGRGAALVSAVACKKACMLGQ
Kind of data set: Characterization of partial glucokinase activators: dose dependent effect on % ΔS0.5 of glucokinase for glucose. Format: biochemical. Conditions: Table 4; partial glucokinase activators. How it is done: The ΔS0.5 is then normalized to a percent scale, where the S0.5 in the vehicle control is set to 0% and 0 mM glucose is set to 100%. […] The EC50 of % change in S0.5 is obtained from the sigmoidal fit of the data.
The change in the S0.5 of glucokinase (ΔS0.5) for glucose in the presence of Examples A11, O15 and J1 is calculated by subtracting the S0.5 at each concentration of each Example from the S0.5 in the vehicle control. The ΔS0.5 is then normalized to a percent scale, where the S0.5 in the vehicle control is set to 0% and 0 mM glucose is set to 100%. The % ΔS0.5 is then plotted against the log of the concentration of each Example.
FIG. 2B illustrates such a derived plot, taking S0.5 data from FIG. 2A.
Glucokinase (GK) activity, in vitro, has been measured using a coupled enzymatic assay (Ref: Hariharan et al (1997) Diabetes 46: 11-16). GK catalyzes the first step, the conversion of glucose to glucose-6-phosphate (G6P) in the presence of ATP. G6P in turn is converted by glucose-6-phosphate dehydrogenase (G6PD) to 6-phosphogluconate, a process that requires NAD, resulting in NADH formation. Since the GK-catalyzed step is the rate-limiting step of this coupled enzymatic process, the rate of accumulation of 6-phosphogluconate and NADH is directly proportional to the rate of glucose phosphorylation by GK. The rate of the GK-catalyzed reaction can therefore be measured by monitoring the increase in NADH absorbance at 340 nm.
The assay is carried out according to the protocol outlined in Hariharan et al (1997), Diabetes 46: 11-16. Briefly, the test compounds are incubated in a reaction mix containing 25 mM HEPES (pH 7.2), 10 mM MgCl2, 100 mM KCl, 5 mM ATP, 2 mM DTT, 0.5 mM NAD, 1 U/ml Leuconostoc mesenteroides G6PD, 0.3 U/ml of purified human recombinant GK, and different concentrations of glucose. Enzymatic activity is calculated from the initial reaction velocity, measured from the change in NADH absorbance as a function of time.
Compounds of interest are tested in GK assay to monitor dose dependent effect on Glucokinase activation (in kinetic mode), as described above, at various glucose concentration.

In a further data set the test system is primary rat hepatocytes. The data set is described as follows: Glycogen synthesis in primary rat hepatocytes. Format: cell-based. The following applies: Table 5, 10 mM glucose, 3 hours, over DMSO control. Here is the method: Primary hepatocytes are collected from male Wistar rats, and tested for viability by trypan blue exclusion. […] The medium is then replaced with fresh MEM (serum-free) containing 2 μCi/ml of D-[U^14C]-Glucose along with 10 μM of the compound in a final DMSO concentration of 0.1%. The final glucose concentration is brought to 10 mM by the addition of D-Glucose (MEM already contains 5 mM glucose). The cells are incubated for 3 hours at 37° C. […] After another round of centrifugation, the supernatant is removed, and the pellet containing the precipitated glycogen is dried overnight. De novo synthesized glycogen is estimated in a scintillation counter (MicroBeta Trilux, Perkin Elmer), and expressed as fold increase over DMSO control.
The protocol for isolation of primary rat hepatocytes is based on the method described in “Methods in Enzymology, Vol. III. pp 34-50. Ed. by S. P. Colowick and N. O. Kaplan.
Compounds described in formula (I), in concentration ranges from 1.0 nM to 500 μM, are tested in glycogen synthesis assay described above.

The conditions of data set [2]: animal efficacy models; PSN-GK1 at higher dose; cited from earlier work.

`CC(C)(Oc1ccc2c(c1)OCO2)C(=O)Nc1nc(CC(=O)Nc2ccc(F)cc2)cs1` [Example J2, 2-(Benzo[1,3]dioxol-5-yloxy)-N-{4-[(4-fluoro-phenylcarbamoyl)-methyl]-thiazol-2-yl}-2-methyl-propionamide]: in data set [1], the Emax worked out at 40%. The “Fold increase in glycogen synthesis at 10 μM Compound” value with primary rat hepatocytes is listed as 1.8 fold. With `CS(=O)(=O)c1ccc([C@@H](CC2CCCC2)C(=O)Nc2nccs2)cc1` [Ro-28-1675], the Hypoglycemia result in data set [2] was “cause hypoglycemia in animal efficacy models”.
